The text below walks through data of patent US20080279843A1, “Method For Improving Insulin Sensitivity By Administering an Inhibitor of Antitrypsin” (Essential SkinCare, LLC, priority 2003, published 2008).

“Also recorded” adds a separate entry of the source.

Data set [1] relates to differentiated rat L6 muscle cells. The data set can be described thus: Cellular uptake of D-[14C]glucose. In kind it is cell-based. Particulars: FIG. 3A; 500 nM insulin; incubations for 2-6 hours. On the procedure: (§1) Rat L6 skeletal muscle cells were obtained from the American Type Culture Collection, Rockville, Md. L6 cell monolayers were induced to differentiate in Minimal Essential Medium (MEM) containing 2% (v/v) fetal bovine serum (FBS) and 1% (v/v) antibiotic/antimycotic solution. The cells were fed fresh medium every 48 hours. Myoblast differentiation, which occurred by about the 7-9th day, was monitored by phase contrast microscopy. Differentiated L6 cells are widely used models for studying glucose metabolism in the skeletal muscle. The present study was focused on these cells, because skeletal muscle accounts for about 70-80% of total blood glucose metabolism in the human body.
(§2) To examine cellular glucose uptake and metabolism, differentiated (attached) cells in 12-well plates were incubated at 37° C. in a CO2 incubator (95% air: 5% CO2) with D-[^14C]glucose (1 μCi/mL) in 2% FBS-containing medium containing 5.5 mM unlabeled glucose for 0.5-6 hours as indicated at the corresponding Figures. At the termination of incubation, the medium was removed. An aliquot of the medium was taken to determine the loss of [^14C]glucose from the medium which corresponds to its uptake by cells. Cells were washed twice with 3 ml medium to remove traces of medium containing unincorporated radioactivity. Ice-cold 99.8% methanol/0.2% water (v/v) mixture (1 ml) was then added to the monolayers and cells were extracted for 2 hours at −20° C. […] The methanol phase (1 ml) and a following 1 ml methanol wash were added to 2 ml chloroform followed by the addition of 3 ml water. Of the resulting two phases (separation was facilitated by brief centrifugation), the lower phase contained the total radiolabeled lipids, while the upper phase contained [^14C]glucose.
(§3) Aliquots of the upper and lower phases were taken to scintillation vials to determine the amounts of radiolabeled glucose and total lipids, respectively, by liquid scintillation counting. Precipitated [^14C]glycogen was suspended in 0.75 ml of 1 M NaOH and transferred to scintillation vial. This procedure was repeated with another 0.75 ml aliquot of NaOH. To neutralize the suspension, […] (approximately 150 μL) was then added to the vials, followed by the addition of 8.5 ml Ecolume (scintillation fluid). While the 1 M NaOH suspension contained some particulate material (mostly protein which was not labeled with radiolabeled glucose), no precipitate remained in the suspension after addition of Ecolume. […] No additional radioactivity could be removed from the well by neutralized 30% KOH.
Three groups of differentiated L6 cells, incubated in 12-well plates in 2% FBS-containing medium, were treated as follows. A first control group ([…]) was untreated. A second group (▴) was treated with 500 nM insulin for 30 min. A third group (▪) was treated first with 0.4 mg/ml of AT followed by an addition of 500 nM insulin for 30 min. Following the addition of D-[^14C]glucose, each group was incubated in the continuous presence of insulin and AT, as described above, for 0.5-6 hours.
Four groups of differentiated L6 cells, incubated in 12-well plates in 2% FBS-containing medium, were treated as follows. A first control group was untreated. A second group was treated with 500 nM insulin for 30 min. A third group was treated with 0.05 to 0.4 mg/ml of AT for 10 min. Finally, a fourth group was treated with 0.05 to 0.4 mg/ml of AT for 10 min followed by the addition of 500 nM insulin for 30 min. […]

Data set [2] has the same test system. In words: Synthesis of [14C]glycogen from radiolabeled glucose. In kind it is cell-based. Particulars: 500 nM insulin. Here is the method:
as §1, §2, §3
In some experiments, a published procedure [Huang, D., Cheung, A. T., Parsons, J. T. and Bryer-Ash, M. “Focal adhesion kinase (FAK) regulates insulin-stimulated glycogen synthesis in hepatocytes.” J. Biol. Chem. 277, 18151-18160, (2002)] was used to determine glucose incorporation into glycogen in a method similar to the one described above. After incubations with [^14C] glucose, cells were solubilized with 20% KOH for 2 hours. Lysates were extracted with 8% […], neutralized with 2.0 M HCl, then boiled for 5 min. The total glycogen was precipitated by the addition of 80% ethanol (final concentration) for 2 hours at −20° C. followed by centrifugation at 1100×g for 10 min. This step was repeated.
After the pellets had been re-dissolved in distilled water, the samples were precipitated again using the same method described above, and yielded essentially the same results. In subsequent experiments the initial methanol precipitation method described above was used because it allowed for analysis of cellular glucose, glycogen and lipids from the same sample.
Three groups of differentiated L6 cells, incubated in 12-well plates in 2% FBS-containing medium, were treated as follows. A first control group ([…]) was untreated. A second group (▴) was treated with 500 nM insulin for 30 min. A third group (▪) was treated first with 0.4 mg/ml of AT followed by an addition of 500 nM insulin for 30 min. […]

The test system of data set [3] is C57/Black female mice. In words: Glucose tolerance test with insulin and commercial AT (Example 2). In kind it is in vivo. Particulars: FIG. 2; fasting (16 h) mice; insulin 0.5 I.U. 15 min before glucose 3 g/kg i.p. Here is the method: C57/Black female mice weighing 22-23 g were fasted for 16 hours. Four animals were used for each of four treatment groups. The first and fourth treatment group received intraperitoneal injections of 1500 μg commercially obtained AT. Exactly 23 hours and 45 minutes after the AT was administered to the first and fourth treatment group, the animals in the first and second treatment group received 0.5 I.U. of insulin. Exactly 15 minutes after the insulin was administered (i.e., 24 hours after the AT was administered to the first treatment group), glucose (3 g/kg) was injected intraperitoneally into the first, second and third treatment groups. Blood samples were taken from the eyes (canthus), and glucose concentrations in whole blood samples were immediately measured with the fast Glucose C test (Wako Chemicals USA Inc., Richmond, Va., USA). The data presented are the mean ±S.D. of four determinations, one with each animal.

Data set [4] deals with C57/Black female mice. The data set can be described thus: Glucose tolerance test with insulin and purified AT (Example 3). The class given is in vivo. Particulars: for Glucose level: mice fasted 16 h, glucose 3 g/kg i.p., insulin 0.5 I.U. 15 min before glucose, purified AT 1200 μg i.p. 24 h before glucose, mean ± S.D., n=5. On the procedure:
C57/Black female mice weighing 23-25 g were fasted for 16 hours. Five animals were used for each of the three treatment groups. The first treatment group received intraperitoneal injections of 1200 μg purified AT, i.e. AT purified by the procedure of Example 1. Exactly 23 hours and 45 minutes after the AT was administered to the first treatment group, the animals in the first and second treatment group received 0.5 I.U. of insulin. Exactly 15 minutes after the insulin was administered (i.e., 24 hours after AT was administered to the first treatment group), glucose (3 g/kg) was injected intraperitoneally into the first, second and third treatment group. Blood samples were immediately measured with the fast Glucose C test (Wako Chemicals Inc. Richmond, Va., USA). The data presented are the mean ±S.D. of five determinations, one with each animal.

The test system of another data set is humans. Particulars: 600-1200 mg GF once daily, oral, in humans; literature studies; cited from earlier work.
Another data set addresses AT activity (Homo sapiens, UniProt P01009). Particulars: daily oral administration of GF at the 600 mg level; Janciauskiene and Eriksson 1994; cited from earlier work.
Another data set addresses AT (Homo sapiens, UniProt P01009). In words: Prevention of the inhibitory effect of AT on insulin-stimulated glycogen synthesis in differentiated L6 cells (Example 7). In kind it is cell-based. Particulars: FIG. 5. On the procedure: as §1
To examine cellular glucose uptake and metabolism, differentiated (attached) cells in 12-well plates were incubated at 37° C. in a CO2 incubator (95% air: 5% CO2) with D-[^14C]glucose (1 μCi/mL) in 2% FBS-containing medium containing 5.5 mM unlabeled glucose for 0.5-6 hours as indicated at the corresponding Figures. […] Cells were washed twice with 3 ml medium to remove traces of medium containing unincorporated radioactivity. […]
Aliquots of the upper and lower phases were taken to scintillation vials to determine the amounts of radiolabeled glucose and total lipids, respectively, by liquid scintillation counting. […] No additional radioactivity could be removed from the well by neutralized 30% KOH. […]

Sequence of AT (P01009 25-418): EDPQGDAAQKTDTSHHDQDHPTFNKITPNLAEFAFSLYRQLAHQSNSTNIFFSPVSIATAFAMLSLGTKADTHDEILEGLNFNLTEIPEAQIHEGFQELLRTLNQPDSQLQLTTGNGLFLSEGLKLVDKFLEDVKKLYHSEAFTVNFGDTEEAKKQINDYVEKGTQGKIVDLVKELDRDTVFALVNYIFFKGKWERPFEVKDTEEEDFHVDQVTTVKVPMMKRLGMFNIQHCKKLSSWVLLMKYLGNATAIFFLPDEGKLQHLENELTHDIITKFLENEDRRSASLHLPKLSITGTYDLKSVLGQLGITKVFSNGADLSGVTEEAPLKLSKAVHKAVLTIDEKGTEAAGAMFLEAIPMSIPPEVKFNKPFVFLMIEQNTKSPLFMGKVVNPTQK
Sequence of AT activity (P01009 25-418): as above

On to insulin [reference compound], for which the “Stimulatory effect of insulin on uptake of D-[14C]glucose compared to untreated cells” value in data set [1] is on record as “approximately doubled; also recorded: more than two-fold stimulatory effects”. Besides, the “Stimulatory effect of insulin on synthesis of [14C]glycogen compared to untreated cells” value in data set [2] (FIG. 3B, incubations for 2-6 hours) is reported as “approximately doubled; also recorded: more than two-fold stimulatory effects”. The “Stimulation of synthesis of [14C]glycogen by insulin” value in data set [2] (FIG. 5, 5 hours) was “about two-fold”. Further, the “Effect of insulin on the rise in blood glucose level after glucose” value in the data set with C57/Black female mice [3] and with C57/Black female mice [4] (insulin 0.5 I.U. 15 min before glucose 3 g/kg i.p.) was “initially strongly inhibited the rise in blood glucose level” in each case. The Glucose level in the data set on C57/Black female mice [4] (0 min) is reported as 1.7 ± 0.2 mM; in the data set with C57/Black female mice [4] (30 min), “N.D.* (N.D means not detectable (below 1 mM))”; in the data set on C57/Black female mice [4] (60 min), 2.5 ± 0.2 mM; in the data set on C57/Black female mice [4] (180 min), 3.0 ± 0.3 mM; in the data set on C57/Black female mice [4] (360 min), 3.3 ± 0.3 mM.

For `Cc1ccc(C)c(OCCCC(C)(C)C(=O)O)c1` [GF, gemfibrozil], the Side effects result in the data set with humans is given as “In none of these studies did GF exert any significant side effects”. For the same compound, at AT activity, the “Inhibition of AT activity” value is given as 30-60%. At AT (25 mM GF or 50 μM LCA added 60 min prior to AT (0.4 mg/ml), 500 nM insulin, 5 hours), the “Effect of GF or LCA on the inhibitory effect of AT on insulin-stimulated glycogen synthesis” value is given as “AT had no such inhibitory effect; also recorded: capable of preventing the strong inhibitory effect of AT”. Also, at AT (25 mM GF or 50 μM LCA, without AT), the “Effect of GF or LCA on glycogen synthesis in the absence of AT” value is given as “Neither GF nor LCA had a significant effect”.
